For test [1], the system named is HEK293. The test is described as follows: Inhibition of LPS-induced NF-KB transcriptional activity expressed in HEK-293 cells at 1 ug/ml after 4 hrs by luciferase reporter gene assay relative to LPS-treated group. In kind it is cell-based. For orientation: Reporter assays use an easily measured gene product as a stand-in for the process of interest.
For test [2], the system named is HEK293. The test is described as follows: Inhibition of LPS-induced NF-KB transcriptional activity expressed in HEK-293 cells at 100 ug/ml after 4 hrs by luciferase reporter gene assay relative to LPS-treated group. In kind it is cell-based.
Test [3] relates to HEK293. Description: Inhibition of LPS-induced NF-KB transcriptional activity expressed in HEK-293 cells at 10 ug/ml after 4 hrs by luciferase reporter gene assay relative to LPS-treated group. In kind it is cell-based.
Test [4] relates to HEK293. The test is described as follows: Inhibition of NF-KB production in human HEK293 cells by BCA protein assay. In kind it is functional, cell-based.

As to `COC(=O)C1=CO[C@@H](O[C@@H]2O[C@H](CO)[C@@H](O)[C@H](O)[C@H]2O)[C@H]2[C@@H]1[C@H](O)[C@H](O)[C@@]2(C)O`, the NF-κB luciferase activity relative to LPS-treated group in the test with HEK293 [1] came to 0.37; in the test on HEK293 [2], 0.38. Further, the RLU with HEK293 [3] came out at 0.15.
On to `COC(=O)C1=CO[C@@H](O[C@@H]2O[C@H](CO)[C@@H](O)[C@H](O)[C@H]2O)[C@@H]2[C@@]3(C)O[C@H]3[C@@H](O)[C@]12O`, for which the NF-κB luciferase activity relative to LPS-treated group with HEK293 [1] was 0.15; in the test on HEK293 [2], 0.36. The RLU in the test with HEK293 [3] is 0.14.
Taken in the same sequence, the figures for `COC(=O)C1=CO[C@@H](O[C@@H]2O[C@H](CO)[C@@H](O)[C@H](O)[C@H]2O)[C@H]2[C@@H]1[C@H](OC(C)=O)C[C@]2(C)O` were 0.06, 0.11 and 0.13.
Taken in the same sequence, the figures for `COC(=O)C1=CO[C@@H](O[C@@H]2O[C@H](COC(=O)c3cc(OC)c(O)c(OC)c3)[C@@H](O)[C@H](O)[C@H]2O)[C@H]2[C@@H]1[C@H](O)[C@@H]1O[C@]21C` were 0.55, 0.48 and 0.32.
The corresponding values for `COC(=O)C1=CO[C@@H](O[C@@H]2O[C@H](CO)[C@@H](O)[C@H](O)[C@H]2O)[C@@H]2[C@@](C)(O)[C@H](O)[C@@H](O)[C@]12O` are 0.18, 0.31 and 0.34.
Regarding `C=C1C[C@@H](O)[C@@H]2C(C(=O)OC)=CO[C@@H](O[C@@H]3O[C@H](CO)[C@@H](O)[C@H](O)[C@H]3O)[C@H]12`, the NF-κB luciferase activity relative to LPS-treated group in the test on HEK293 [1] was determined as 0.26; with HEK293 [2], 0.4. Besides, the RLU in the test on HEK293 [3] came out at 0.43.
Taken in the same sequence, the figures for `COC(=O)C1=CO[C@@H](O[C@@H]2O[C@H](CO)[C@@H](O)[C@H](O)[C@H]2O)[C@H]2[C@@H]1[C@H](O)[C@@H]1O[C@]21C` were 0.23, 0.42 and 0.46.
As to `COC(=O)C1=CO[C@@H](O[C@@H]2O[C@H](CO)[C@@H](O)[C@H](O)[C@H]2O)[C@@H]2C(C)=C[C@@H](O)[C@]12O`, the NF-κB luciferase activity relative to LPS-treated group is 0.06 in the test with HEK293 [1] and 0.24 with HEK293 [2]. In the test with HEK293 [4], the inhibition entry is “Dose-dependent effect”. This molecule displayed an RLU in the test with HEK293 [3] of 0.18.
Turning to `COC(=O)C1=CO[C@@H](O[C@@H]2O[C@H](CO)[C@@H](O)[C@H](O)[C@H]2O)[C@@H]2[C@@](C)(O)[C@@H](O)[C@@H](O)[C@]12O`, the NF-κB luciferase activity relative to LPS-treated group worked out at 0.56 in the test with HEK293 [1] and 0.49 with HEK293 [2]. This molecule also gave an RLU in the test on HEK293 [3] of 0.34.
The corresponding values for `COC(=O)C1=CO[C@@H](O[C@@H]2O[C@H](CO)[C@@H](O)[C@H](O)[C@H]2O)[C@H]2[C@@H]1[C@H](O)[C@@H](Cl)[C@]2(C)O` are 0.05, 0.22 and 0.19.
Turning to `C[C@]12CCC(=O)C=C1CC[C@@H]1[C@@H]2[C@@H](O)C[C@@]2(C)[C@H]1CC[C@]2(O)C(=O)CO`, the values for the NF-κB luciferase activity relative to LPS-treated group with HEK293 [1] and in the test with HEK293 [2] were 0.26 and 0.45, respectively. In addition, the RLU in the test on HEK293 [3] came out at 0.32.
Taken in the same sequence, the figures for `COC(=O)C1=CO[C@@H](O[C@@H]2O[C@H](CO)[C@@H](O)[C@H](O)[C@H]2O)[C@@H]2[C@@H](C)[C@@H](O)C[C@H]12` were 0.66, 0.56 and 0.56.
The corresponding values for `COC(=O)C1=CO[C@@H](O[C@@H]2O[C@H](CO)[C@@H](O)[C@H](O)[C@H]2O)[C@H]2[C@@H]1[C@H](O)C[C@]2(C)OC(C)=O` are 0.13, 0.34 and 0.4.
Taken in the same sequence, the figures for `COC(=O)C1=CO[C@@H](O[C@@H]2O[C@H](CO)[C@@H](O)[C@H](O)[C@H]2O)[C@H]2[C@@H]1[C@H](O)[C@H](O)[C@]2(C)O` were 0.23, 0.41 and 0.19.
With `C=CC(C)(O)CC/C=C(\C)C(=O)O[C@@H]1C[C@](C)(OC(C)=O)[C@H]2[C@H](O[C@@H]3O[C@H](CO)[C@@H](O)[C@H](O)[C@H]3O)OC=C(C(=O)OC)[C@H]21` (stereo partly specified), the NF-κB luciferase activity relative to LPS-treated group turned out to be 0.25 with HEK293 [1] and 0.31 in the test with HEK293 [2]. For the same molecule, the RLU in the test with HEK293 [3] was 0.21.
Take `CCCCO[C@@H]1C=C(C)[C@H]2[C@H](O[C@@H]3O[C@H](CO)[C@@H](O)[C@H](O)[C@H]3O)OC=C(C(=O)OC)[C@H]21`: the NF-κB luciferase activity relative to LPS-treated group came out at 0.15 in the test with HEK293 [1] and 0.48 with HEK293 [2]. Further, in the test with HEK293 [4], the inhibition entry is “Dose-dependent effect”. For the same molecule, the RLU in the test on HEK293 [3] was 0.38.
The corresponding values for `COC(=O)C1=CO[C@@H](O[C@@H]2O[C@H](CO)[C@@H](O)[C@H](O)[C@H]2O)[C@@H]2[C@H](C)CC[C@H]12` are 0.23, 0.62, “Dose-dependent effect” and 0.44.
Consider `COC(=O)C1=CO[C@@H](O[C@@H]2O[C@H](CO)[C@@H](O)[C@H](O)[C@H]2O)[C@@H]2[C@H](C)[C@@H](O)C[C@H]12`, for which the NF-κB luciferase activity relative to LPS-treated group stood at 0.14 with HEK293 [1] and 0.26 in the test on HEK293 [2]. The same molecule had an RLU with HEK293 [3] of 0.13.
Turning to `COC(=O)C1=CO[C@@H](O[C@@H]2O[C@H](CO)[C@@H](O)[C@H](O)[C@H]2O)[C@H]2[C@@H]1[C@H](OC(=O)c1cc(OC)c(O)c(OC)c1)C[C@]2(C)OC(C)=O`, the values for the NF-κB luciferase activity relative to LPS-treated group with HEK293 [1] and in the test with HEK293 [2] were 0.12 and 0.42, respectively. In the test with HEK293 [3], this molecule returned an RLU of 0.08.
Turning to `COC(=O)C1=CO[C@@H](O[C@@H]2O[C@H](CO)[C@@H](O)[C@H](O)[C@H]2O)[C@H]2[C@@H]1[C@H](O)C[C@]2(C)O`, the NF-κB luciferase activity relative to LPS-treated group in the test with HEK293 [1] was found to be 0.39; with HEK293 [2] it was 0.31. The same molecule displayed an RLU with HEK293 [3] of 0.21.
For the molecule `COC(=O)C1=CO[C@@H](O[C@@H]2O[C@H](CO)[C@@H](O)[C@H](O)[C@H]2O)[C@@H]2C(C)=C[C@@H](O)[C@H]12`, the NF-κB luciferase activity relative to LPS-treated group in the test on HEK293 [1] was 0.5; in the test with HEK293 [2], 0.68. Besides, the RLU with HEK293 [3] came out at 0.59.
